Results published in patent publication US12295396B2, “Antagonists of T2R54 and compositions and uses thereof” (Firmenich Incorporated, priority 2018, dated 2025).

target: T1, hT2R54 (Homo sapiens, UniProt P59534); assay: Cell-based assay for measuring hT2R54 inhibition (FLIPR calcium, Fluo4AM, acetaminophen as bitter agonist); details: Table 4; cells stably expressing hT2R54 and a promiscuous G protein; read-out: hT2R54 IC50
T1 construct: expressed in transfected cells; it overexpresses a promiscuous G protein
T1 sequence (P59534 1-338): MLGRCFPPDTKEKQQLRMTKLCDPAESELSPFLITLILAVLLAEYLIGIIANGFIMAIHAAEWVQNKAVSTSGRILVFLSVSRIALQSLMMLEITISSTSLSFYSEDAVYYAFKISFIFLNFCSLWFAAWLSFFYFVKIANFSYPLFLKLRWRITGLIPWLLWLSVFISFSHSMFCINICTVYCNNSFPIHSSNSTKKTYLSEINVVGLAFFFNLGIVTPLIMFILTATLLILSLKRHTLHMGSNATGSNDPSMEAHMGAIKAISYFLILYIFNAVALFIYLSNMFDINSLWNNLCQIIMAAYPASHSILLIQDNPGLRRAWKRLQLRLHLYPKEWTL
Description: Cells stably expressing hT2R54 and a promiscuous G protein were seeded in 384 well plates 24 hours prior to the experiment. Cells were loaded with the calcium indicator Fluo4AM, washed and loaded in a FLIPR instrument with a compound plate containing increasing doses of acetaminophen in quadruplicates and prepared at 2× of final concentration. Baseline was recorded for 10 seconds, then 25 μl of […] was added onto 25 μl of cells and resulting changes in fluorescence were monitored over an additional 3 minutes. The host cell line overexpressing the G protein but not hT2R54 was treated as described above.
The ability of a test compound that blocks bitter taste elicited through hT2R54 was measured in this assay, as follows. Cells stably expressing hT2R54 and a promiscuous G protein were seeded in 384 well plates 24 hours prior to the experiment. Cells were loaded with the calcium indicator Fluo4AM, washed and loaded in a FLIPR instrument with a compound plate containing increasing doses of acetaminophen in buffer and increasing doses of acetaminophen with depicted fixed concentrations of Cmpd 109 (Table 4). Base line was recorded for 10 seconds, then 25 μl of compound and compound mixtures were added onto 25 μl of cells and resulting changes in fluorescence were monitored over an additional 3 minutes. The concentration of test compound that blocks half of the response when the bitter compound alone is present is presented as the EC50 or IC50 value.
In the examples above, the EC50 of compounds for blocking bitter taste elicited through T2R54 was measured in the same manner.

Compound | IC50 [nM]
COC(=O)C1CN(CC(=O)Nc2cc3c(cc2C(C)=O)OCO3)CCC1=O (stereo not shown) [compound 126] | 154
CCOC(=O)C1CN(CC(=O)Nc2cc3c(cc2C(C)=O)OCO3)CCO1 (stereo not shown) [compound 127] | 13
CCOC(=O)C1COCCN1CC(=O)Nc1cc2c(cc1C(C)=O)OCO2 (stereo not shown) [compound 128] | 79
CC(=O)c1cc2c(cc1NC(=O)CN1CCN(C(=O)OC(C)(C)C)CC1)OCO2 [compound 129] | < 1000
CC(=O)c1cc2c(cc1NC(=O)CN(C)C1CCCCC1)OCO2 [compound 130] | 312
CCN(CCOC)CC(=O)Nc1cc2c(cc1C(C)=O)OCO2 [compound 131] | 2000
COC(=O)CN(C)CC(=O)Nc1cc2c(cc1C(C)=O)OCO2 [compound 132] | 659
CCOC(=O)CCN(C)CC(=O)Nc1cc2c(cc1C(C)=O)OCO2 [compound 133] | 113
CC(=O)c1cc2c(cc1NC(=O)CN(C)CCC(=O)N(C)C)OCO2 [compound 134] | 960
CCNC(=O)CCN(C)CC(=O)Nc1cc2c(cc1C(C)=O)OCO2 [compound 135] | 500
CCOC(=O)CCN(CC)CC(=O)Nc1cc2c(cc1C(C)=O)OCO2 [compound 136] | 179
CCOC(=O)[C@@H]1CCCC[C@H]1N(C)CC(=O)Nc1cc2c(cc1C(C)=O)OCO2 [compound 137] | 2830
CC(=O)c1cc2c(cc1NC(=O)CN(C)C1CCCN(C(=O)OC(C)(C)C)C1)OCO2 (stereo not shown) [compound 138] | 150
CC(=O)c1cc2c(cc1NC(=O)CNC1CCN(C(=O)OC(C)(C)C)CC1)OCO2 [compound 139] | 176
CC(=O)c1cc2c(cc1NC(=O)CN(C)C1CCN(C(=O)OC(C)(C)C)CC1)OCO2 [compound 140] | 433
CCOC(=O)C1CCC(N(C)CC(=O)Nc2cc3c(cc2C(C)=O)OCO3)CC1 (stereo not shown) [compound 141] | 168
CCOC(=O)CCN(C)CC(=O)Nc1cc2c(cc1OC)OCO2 [compound 142] | 230
COc1cc2c(cc1NC(=O)CN1CCOCC1)OCO2 [compound 143] | 142
COc1cc2c(cc1NC(=O)CN1CCCC(O)C1)OCO2 (stereo not shown) [compound 144] | < 2000
COc1cc2c(cc1NC(=O)CN1CCCC(OC)C1)OCO2 (stereo not shown) [compound 145] | 575
COc1cc2c(cc1NC(=O)CN1CCC(O)CC1)OCO2 [compound 146] | < 2000
COc1cc2c(cc1NC(=O)CN1CCC(OC)CC1)OCO2 [compound 147] | 448
COc1cc2c(cc1NC(=O)CN1CCN(C(=O)OC(C)(C)C)CC1)OCO2 [compound 148] | < 2000
COc1cc2c(cc1NC(=O)CN1CCCc3cccc(F)c31)OCO2 [compound 149] | 885
COc1cc2c(cc1NC(=O)CN1CCc3ccccc31)OCO2 [compound 150] | 393
CCOC(=O)C1CCCN(CC(=O)Nc2cc3c(cc2Cl)OCCO3)C1 (stereo not shown) [compound 151] | 152
CC(=O)c1cc2c(cc1NC(=O)CN1CCOCC1)OCCO2 [compound 152] | 630
CCOC(=O)C1CCN(CC(=O)Nc2cc3c(cc2C(C)=O)OCCO3)CC1 [compound 153] | 24

same assay, conditions: Table 5; cells stably expressing hT2R54 and a promiscuous G protein; read-out: hT2R54 IC50

Compound | IC50 [nM]
CNC(=O)C1CCCN(CC(=O)Nc2cc3c(cc2C(C)=O)OCO3)C1 (stereo not shown) [compound 154, 1-(2-((6-Acetylbenzo[d][1,3]dioxol-5-yl)amino)-2-oxoethyl)-N-methylpiperidine-3-carboxamide] | 24
CCNC(=O)C1CCCN(CC(=O)Nc2cc3c(cc2C(C)=O)OCO3)C1 (stereo not shown) [compound 155] | 210
CC(=O)c1cc2c(cc1NC(=O)CN1CCCC(C(=O)NCc3ccccc3)C1)OCO2 (stereo not shown) [compound 156] | 114
CC(=O)c1cc2c(cc1NC(=O)CN1CCCC(C(=O)Nc3ccccc3)C1)OCO2 (stereo not shown) [compound 157] | 565
CC(=O)c1cc2c(cc1NC(=O)CN1CCCC(C(=O)N(C)C)C1)OCO2 (stereo not shown) [compound 158] | 107
CC(=O)c1cc2c(cc1NC(=O)CN1CCCC(C(=O)N3CCOCC3)C1)OCO2 (stereo not shown) [compound 159] | 497
CNC(=O)C1CCCCN1CC(=O)Nc1cc2c(cc1C(C)=O)OCO2 (stereo not shown) [compound 160] | 1270
CNC(=O)C1CCN(CC(=O)Nc2cc3c(cc2C(C)=O)OCO3)CC1 [compound 161] | 1350
CCNC(=O)C1CCN(CC(=O)Nc2cc3c(cc2C(C)=O)OCO3)CC1 [compound 162] | 747
CC(=O)c1cc2c(cc1NC(=O)CN1CCC(C(=O)Nc3cccnc3)CC1)OCO2 [compound 163] | 459
CC(=O)c1cc2c(cc1NC(=O)CN1CCC(C(=O)Nc3ccccc3)CC1)OCO2 [compound 164] | 2090
CC(=O)c1cc2c(cc1NC(=O)CN1CCC(C(=O)NCc3ccccc3)CC1)OCO2 [compound 165] | 1400

same assay, conditions: Table 6; cells stably expressing hT2R54 and a promiscuous G protein; read-out: hT2R54 IC50

Compound | IC50 [nM]
CC(=O)NC1CCN(CC(=O)Nc2cc3c(cc2C(C)=O)OCO3)CC1 [compound 166, 2-(4-Acetamidopiperidin-1-yl)-N-(6-acetylbenzo[d][1,3]dioxol-5-yl)acetamide] | 264
CCC(=O)NC1CCN(CC(=O)Nc2cc3c(cc2C(C)=O)OCO3)CC1 [compound 167] | 310
CC(=O)c1cc2c(cc1NC(=O)CN1CCC(NC(=O)C(C)C)CC1)OCO2 [compound 168] | 140
CC(=O)c1cc2c(cc1NC(=O)CN1CCC(NC(=O)CC(C)C)CC1)OCO2 [compound 169] | 140
CC(=O)c1cc2c(cc1NC(=O)CN1CCC(CNC(=O)CC(C)C)CC1)OCO2 [compound 170] | 188
CC(=O)c1cc2c(cc1NC(=O)CN1CCC(NC(=O)c3ccccc3)CC1)OCO2 [compound 171] | 60
CC(=O)c1cc2c(cc1NC(=O)CN1CCC(NC(=O)c3ccco3)CC1)OCO2 [compound 172] | 690
CC(=O)c1cc2c(cc1NC(=O)CN1CCC(NC(=O)c3cccs3)CC1)OCO2 [compound 173] | 110
CC(=O)c1cc2c(cc1NC(=O)CN1CCC(NC(=O)c3ccccn3)CC1)OCO2 [compound 174] | 270
CC(=O)c1cc2c(cc1NC(=O)CN1CCC(NC(=O)c3cccnc3)CC1)OCO2 [compound 175] | 110
CC(=O)c1cc2c(cc1NC(=O)CN1CCC(NC(=O)c3ccncc3)CC1)OCO2 [compound 176] | 450
CC(=O)c1cc2c(cc1NC(=O)CNC1CCN(C(=O)CC(C)C)CC1)OCO2 [compound 177] | 200
CC(=O)c1cc2c(cc1NC(=O)CNC1CCN(C(=O)c3ccco3)CC1)OCO2 [compound 178] | 60
CC(=O)c1cc2c(cc1NC(=O)CNC1CCN(C(=O)c3cccnc3)CC1)OCO2 [compound 179] | 90
CC(=O)c1cc2c(cc1NC(=O)CN1CCC(N(C)C(=O)CC(C)C)CC1)OCO2 [compound 180] | 589
CC(=O)c1cc2c(cc1NC(=O)CN1CCC(N(C)C(=O)c3ccco3)CC1)OCO2 [compound 181] | 676
CC(=O)c1cc2c(cc1NC(=O)CN1CCC(N(C)C(=O)c3cccnc3)CC1)OCO2 [compound 182] | 455

same assay, conditions: Table 7; cells stably expressing hT2R54 and a promiscuous G protein; read-out: hT2R54 IC50

Compound | IC50 [nM]
CC(=O)c1cc2c(cc1NC(=O)CN(C)C1CCN(C(=O)c3ccco3)CC1)OCO2 [compound 183, N-(6-Acetylbenzo[d][1,3]dioxol-5-yl)-2-((1-(furan-2-carbonyl)piperidin-4-yl)(methyl)amino)acetamide] | 61
